# Values of other authors in patent US20110256545A1, “mRNA expression-based prognostic gene signature for non-small cell lung cancer” (priority 2010, published 2011).
# “Also recorded” adds a separate entry of the source.
# Tested on: NCI-60 cell lines
# Details: the value is the cell line; for Resistant lung cancer cell lines: NCI-60 lung cancer (LC) cell lines classed as resistant to the agent; for Sensitive lung cancer cell lines: NCI-60 lung cancer (LC) cell lines classed as sensitive to the agent
SMILES,Resistant lung cancer cell lines,Sensitive lung cancer cell lines
N.N.O=C([O-])C1(C(=O)[O-])CCC1.[Pt+2] [Carboplatin],LC: EKVX,LC: NCI_H460; also recorded: LC: NCI_H522
N.N.[Cl][Pt][Cl] [Cisplatin],LC: NCI_H226; also recorded: LC: EKVX,LC: HOP_62; also recorded: LC: NCI_H460
COc1cc([C@@H]2c3cc4c(cc3[C@@H](O[C@@H]3O[C@@H]5CO[C@@H](C)O[C@H]5[C@H](O)[C@H]3O)[C@H]3COC(=O)[C@H]23)OCO4)cc(OC)c1O [Etoposide],LC: EKVX,LC: HOP_62; also recorded: LC: NIC_H460
CC(=O)O[C@H]1C(=O)[C@@]2(C)[C@H]([C@H](OC(=O)c3ccccc3)[C@]3(O)C[C@H](OC(=O)[C@H](O)[C@@H](NC(=O)c4ccccc4)c4ccccc4)C(C)=C1C3(C)C)[C@]1(OC(C)=O)CO[C@@H]1C[C@@H]2O [Paclitaxel],LC: HOP_92; also recorded: LC_EKVX,LC: NCI_H460; also recorded: LC: NCI_H522
